According to article PMC8587869, “Evaluation of the Inhibitory Effects of Pyridylpyrazole Derivatives on LPS-Induced PGE2 Productions and Nitric Oxide in Murine RAW 264.7 Macrophages” (Molecules, 2021):

Assays:
Format in all cases: cell-based, murine
[1] = MTT assay for cell viability in RAW 264.7 macrophages; conditions: mouse, murine RAW 264.7 macrophages, mean ± SD of three experiments
Procedure: (§1) Before screening the PGE2 and NO production inhibitory effects of the compounds, the compounds’ cytotoxicity was evaluated at 1 and 10 μM concentrations to make sure that the tested concentrations are safe enough and non-cytotoxic to avoid misleading results. All compounds were non-cytotoxic at 1 μM concentration, while by increasing concentration to 10 μM, all the target compounds except 1f, 1k, and 1m started showing cytotoxicity. […] The piperidinyl and the morpholino moieties seem to be unfavorable to avoid cytotoxicity in this series of compounds. page 9: Biological evaluation Cell culture and sample treatment, nitrite determination, PGE2 assay, and MTT assay for cell viability have been carried out following the reported procedures [Bioorg. Med. Chem. Lett. 2014, 24, 571 & Eur. J. Pharmacol. 2008, 584, 175]. Western blot RAW 264.7 macrophage cells were re-suspended in PRO-PREPTM protein extraction solution (Intron Biotechnology, Seoul, Korea) and incubated with 20 min at 4 °C. The cell debris was removed by microcentrifugation, and the supernatants were quickly frozen. The protein concentration was determined using the Bio-Rad protein assay reagent according to the manufacture’s instruction. Cellular proteins were electroblotted onto a PVDF membrane following separation on 8-12% SDS-polyacrylamide gel electrophoresis. The immunoblot was incubated with blocking solution (5% skimmed milk) at room temperature for 1 h, followed by incubation overnight with a primary antibody at 4 °C. The blots were washed four times with a Tween 20/Tris-buffered saline (T/TBS) and incubated with a 1:2000 dilution of horseradish peroxidase-conjugated secondary antibody for 2 h at room temperature. The blots were again washed three times with T/TBS, and then developed by enhanced chemiluminescence (GE healthcare, WI, USA). Page 9 of 55

RAW 264.7 macrophages [2] = assay: as above; conditions: 2.5, 5, 10 μM; LPS-induced RAW 264.7 macrophages
RAW 264.7 macrophages [3] = assay: as above; conditions: 10 μM; RAW 264.7 macrophages
Procedure: as §1

[4] = system: LPS-induced NO production; assay: Inhibition of LPS-induced NO production (nitrite determination) in RAW 264.7 cells; conditions: LPS-induced RAW 264.7 cells; for inhibition at 1 µM / inhibition at 10 µM: Mus musculus, read-out: Inhibition Rate (%) of NO production; for inhibition at 1 µM: RAW264.7, 1 μM; for inhibition at 10 µM: RAW264.7, 10 μM
Procedure: (§2) Upon confirming the non-cytotoxicity of 10 μM concentration of these three derivatives against murine RAW 264.7 macrophages induced by LPS, compounds 1f, 1k, and 1m were tested for inhibitory effect against LPS-induced PGE2 production together with checking their cell viability. […] The fluorine atom can also add some more merits such as formation of an additional hydrogen bond with a hydrogen bond donor in the target protein and stronger hydrophobic interaction by fluorophenyl compared with unsubstituted phenyl. […] Moreover, 1f and 1m were evaluated at 1 and 10 μM for inhibitory effects on LPS-induced NO production.
(§3) Cell culture and sample treatment, nitrite determination, PGE2 assay, and MTT assay for cell
(§4) viability have been carried out following the reported procedures [Bioorg. Med. Chem. Lett. […]

[5] = system: LPS-induced PGE2 production; assay: Inhibition of LPS-induced PGE2 production in RAW 264.7 macrophages; conditions: for inhibition of PGE2 production (in words): 2.5, 5, 10 μM
Procedure: as §2, §3, §4

COX-2 protein expression = assay: Western blot of COX-2 protein expression in LPS-induced RAW 264.7 macrophages; conditions: especially at 10 µM
Procedure: (§5) Furthermore, the most promising compound 1m was chosen for a more extensive investigation of its molecular mechanism(s) of action. It was tested for inhibitory effects on COX-2 and iNOS protein expressions (Figure 4).
(§6) Cell culture and sample treatment, nitrite determination, PGE2 assay, and MTT assay for cell viability have been carried out following the reported procedures [Bioorg. Med. Chem. Lett.
(§7) RAW 264.7 macrophage cells were re-suspended in PRO-PREPTM protein extraction solution (Intron Biotechnology, Seoul, Korea) and incubated with 20 min at 4 °C. The cell debris was removed by microcentrifugation, and the supernatants were quickly frozen. The protein concentration was determined using the Bio-Rad protein assay reagent according to the manufacture’s instruction. Cellular proteins were electroblotted onto a PVDF membrane following separation on 8-12% SDS-polyacrylamide gel electrophoresis. The immunoblot was incubated with blocking solution (5% skimmed milk) at room temperature for 1 h, followed by incubation overnight with a primary antibody at 4 °C. The blots were washed four times with a Tween 20/Tris-buffered saline (T/TBS) and incubated with a 1:2000 dilution of horseradish peroxidase-conjugated secondary antibody for 2 h at room temperature. The blots were again washed three times with T/TBS, and then developed by enhanced chemiluminescence (GE

phosphorylation of p38 = assay: Western blot of p-p38 in LPS-induced RAW 264.7 macrophages
Procedure: as §5, §6, §7

iNOS protein expression = assay: Western blot of iNOS protein expression in LPS-induced RAW 264.7 macrophages; conditions: especially at 10 µM
Procedure: as §5, §6, §7

[6] = LPS-induced RAW 264.7 macrophages
[7] = Mus musculus, RAW264.7, LPS-induced RAW 264.7 macrophages

COc1cc(-c2nn(-c3cccc(NC(=O)CN4CCCCC4)c3)cc2-c2ccncc2)ccc1Cl [Compound 1a]
viability at 1 µM [1]: 99 ± 5.9%
viability at 10 µM [1]: 10 ± 1.2%

COc1cc(-c2nn(-c3cccc(NC(=O)CN4CCOCC4)c3)cc2-c2ccncc2)ccc1Cl [Compound 1b]
viability at 1 µM [1]: 92 ± 4.5%
viability at 10 µM [1]: 65 ± 2.8%

COc1cc(-c2nn(-c3cccc(NC(=O)CN4CCN(C)CC4)c3)cc2-c2ccncc2)ccc1Cl [Compound 1c]
viability at 1 µM [1]: 78 ± 3.3%
viability at 10 µM [1]: 5 ± 0.8%

CCN1CCN(CC(=O)Nc2cccc(-n3cc(-c4ccncc4)c(-c4ccc(Cl)c(OC)c4)n3)c2)CC1 [Compound 1d]
viability at 1 µM [1]: 75 ± 2.9%
viability at 10 µM [1]: 3 ± 0.4%

COc1cc(-c2nn(-c3cccc(NC(=O)CN4CCN(c5ccccc5)CC4)c3)cc2-c2ccncc2)ccc1Cl [Compound 1e]
viability at 1 µM [1]: 87 ± 4.1%
viability at 10 µM [1]: 65 ± 4.1%

COc1cc(-c2nn(-c3cccc(NC(=O)CN4CCN(Cc5ccccc5)CC4)c3)cc2-c2ccncc2)ccc1Cl [Compound 1f]
cytotoxicity (in words), LPS-induced RAW 264.7 cell viability (RAW 264.7 macrophages [2]): no cytotoxicity
viability at 1 µM [1]: 66 ± 1.8%
viability at 10 µM [1]: 107 ± 8.5%
cytotoxicity (in words) (RAW 264.7 macrophages [3]): non-cytotoxic
Inhibition Rate (%) of NO production ([4]; 10 μM): 11.06 ± 1.5%
inhibition at 1 µM [4]: 0%
inhibition at 10 µM [4]: 11.6%
inhibition of PGE2 production (in words) [5, 6]: good inhibition values
IC50 [5, 6]: 7.1 µM
IC50 [5, 7]: 7.6 µM
inhibition at 5 µM ([5]; Mus musculus, RAW264.7, 5 μM, LPS-induced RAW 264.7 macrophages): 37.4%
inhibition at 10 µM [5, 7]: 65.4%

COc1cc(-c2nn(-c3cccc(NC(=O)CCN4CCCCC4)c3)cc2-c2ccncc2)ccc1Cl [Compound 1g]
viability at 1 µM [1]: 87 ± 3.8%
viability at 10 µM [1]: 5 ± 1.1%

COc1cc(-c2nn(-c3cccc(NC(=O)CCN4CCOCC4)c3)cc2-c2ccncc2)ccc1Cl [Compound 1h]
viability at 1 µM [1]: 99 ± 2.8%
viability at 10 µM [1]: 75 ± 1.7%

COc1cc(-c2nn(-c3cccc(NC(=O)CCN4CCN(C)CC4)c3)cc2-c2ccncc2)ccc1Cl [Compound 1i]
viability at 1 µM [1]: 99 ± 3.4%
viability at 10 µM [1]: 5 ± 1.8%

CCN1CCN(CCC(=O)Nc2cccc(-n3cc(-c4ccncc4)c(-c4ccc(Cl)c(OC)c4)n3)c2)CC1 [Compound 1j]
viability at 1 µM [1]: 98 ± 3.1%
viability at 10 µM [1]: 5 ± 0.8%

COc1cc(-c2nn(-c3cccc(NC(=O)CCN4CCN(c5ccccc5)CC4)c3)cc2-c2ccncc2)ccc1Cl [Compound 1k]
cytotoxicity (in words), LPS-induced RAW 264.7 cell viability (RAW 264.7 macrophages [2]): no cytotoxicity
viability at 1 µM [1]: 89 ± 2.8%
viability at 10 µM [1]: 112 ± 7.6%
cytotoxicity (in words) (RAW 264.7 macrophages [3]): non-cytotoxic
inhibition of PGE2 production (in words) [5, 6]: good inhibition values

COc1cc(-c2nn(-c3cccc(NC(=O)CCN4CCN(Cc5ccccc5)CC4)c3)cc2-c2ccncc2)ccc1Cl [Compound 1l]
viability at 1 µM [1]: 86 ± 3.7%
viability at 10 µM [1]: 34 ± 1.1%

COc1cc(-c2nn(-c3cccc(NC(=O)CCN4CCN(Cc5ccc(F)cc5)CC4)c3)cc2-c2ccncc2)ccc1Cl [Compound 1m]
effect on COX-2 protein expression (in words) (COX-2 protein expression): concentration-dependent inhibitory effect
cytotoxicity (in words), LPS-induced RAW 264.7 cell viability (RAW 264.7 macrophages [2]): no cytotoxicity
viability at 1 µM [1]: 90 ± 4.1%
viability at 10 µM [1]: 97 ± 3.9%
cytotoxicity (in words) (RAW 264.7 macrophages [3]): non-cytotoxic
Inhibition Rate (%) of NO production ([4]; 10 μM): 37.19 ± 3.4%
inhibition at 1 µM [4]: 0%
inhibition at 10 µM [4]: 37%
effect on phosphorylation of p38 (in words) (phosphorylation of p38): markedly suppressed
inhibition of PGE2 production (in words) [5, 6]: good inhibition values
IC50 [5, 7]: 1.1 µM
inhibition at 2.5 µM ([5]; Mus musculus, RAW264.7, 2.5 μM, LPS-induced RAW 264.7 macrophages): 67%
inhibition at 10 µM [5, 7]: 84.9%
effect on iNOS protein expression (in words) (iNOS protein expression): concentration-dependent inhibitory effect

CC(=N)NCCCC[C@H](N)C(=O)O [L-NIL, reference compound]
Inhibition Rate (%) of NO production ([4]; 1 μM): 3.9 ± 2.1%
Inhibition Rate (%) of NO production ([4]; 10 μM): 31.32 ± 2.9%
